Measured values taken from BindingDB's records for doi:10.1021/jm000506s (The R. W. Johnson Pharmaceutical Research Institute, 2001).

test: In vitro antagonist activity against Thrombin induced gel-filtered platelet (GFP) aggregation at 0.15 nM.

Row | SMILES | IC50 [nM]
1 | COc1ccc(C[C@H](NC(=O)Nc2ccc3c(CN4CCCC4)cn(Cc4ccc(F)cc4)c3c2)C(=O)N[C@@H](CCCNC(=N)N)C(=O)NCc2ccccc2)cc1 [2-[2-{3-[1-(4-Fluoro-benzyl)-3-pyrrolidin-1-ylmethyl-1H-indol-6-yl]-ureido}-3-(4-methoxy-phenyl)-propionylamino]-5-guanidino-pentanoic acid benzylamide] | 2320
2 | COc1ccc(C[C@H](NC(=O)Nc2ccc3c(CNC4CCCC4)cn(Cc4ccc(F)cc4)c3c2)C(=O)N[C@@H](CCCNC(=N)N)C(=O)NCc2ccccc2)cc1 [2-[2-{3-[3-Cyclopentylaminomethyl-1-(4-fluoro-benzyl)-1H-indol-6-yl]-ureido}-3-(4-methoxy-phenyl)-propionylamino]-5-guanidino-pentanoic acid benzylamide] | 17800
3 | COc1ccc(C[C@H](NC(=O)Nc2ccc3c(CN4CCCC4)cn(Cc4ccc(OC(F)(F)F)cc4)c3c2)C(=O)N[C@@H](CCCNC(=N)N)C(=O)NCc2ccccc2)cc1 [5-Guanidino-2-(3-(4-methoxy-phenyl)-2-{3-[3-pyrrolidin-1-ylmethyl-1-(4-trifluoromethoxy-benzyl)-1H-indol-6-yl]-ureido}-propionylamino)-pentanoic acid benzylamide] | 18200

Further lines, results first:

Row | IC50 [nM] | SMILES
4 | 1060 | N=C(N)NCCC[C@H](NC(=O)[C@H](Cc1ccc(F)c(F)c1)NC(=O)Nc1ccc2c(CN3CCCC3)cn(Cc3c(Cl)cccc3Cl)c2c1)C(=O)NCc1ccncc1 [2-[2-{3-[1-(2,6-Dichloro-benzyl)-3-pyrrolidin-1-ylmethyl-1H-indol-6-yl]-ureido}-3-(3,4-difluoro-phenyl)-propionylamino]-5-guanidino-pentanoic acid (pyridin-4-ylmethyl)-amide]
5 | 370 | NCC[C@H](NC(=O)[C@H](Cc1ccc(F)c(F)c1)NC(=O)Nc1ccc2c(CN3CCCC3)nn(Cc3c(Cl)cccc3Cl)c2c1)C(=O)NCc1ccccc1 [4-Amino-N-benzyl-2-[2-{3-[1-(2,6-dichloro-benzyl)-3-pyrrolidin-1-ylmethyl-1H-indazol-6-yl]-ureido}-3-(3,4-difluoro-phenyl)-propionylamino]-butyramide]
6 | 570 | N=C(N)NCCC[C@H](NC(=O)[C@H](Cc1ccc(F)c(F)c1)NC(=O)Nc1ccc2c(CN3CCCC3)cn(Cc3c(Cl)cccc3Cl)c2c1)C(=O)NCc1ccccc1 [(S)-2-[(S)-2-{3-[1-(2,6-Dichloro-benzyl)-3-pyrrolidin-1-ylmethyl-1H-indol-6-yl]-ureido}-3-(3,4-difluoro-phenyl)-propionylamino]-5-guanidino-pentanoic acid benzylamide]
7 | 900 | COc1ccc(C[C@H](NC(=O)Nc2ccc3c(CN4CCCC4)cn(Cc4c(Cl)cccc4Cl)c3c2)C(=O)N[C@@H](CCCN=C(N)N)C(=O)NCc2ccccc2)cc1 [RWJ-54003]
